Laboratory results published in patent US20070191324A1, “Methods for treatment or prophylaxis of aldosterone-mediated pathogenic effects in a subject using an epoxy-steroidal aldosterone antagonist” (priority 1999, published 2007).

Key:
[1] = test system: older patients with systolic hypertension and/or widened pulse pressure; test: Eplerenone versus amlodipine in systolic hypertension in older people, 24 weeks (Examples A-19, D-8); format: in vivo, human
Text: At Week 10 or thereafter, if SBP is =170 mmHg on two consecutive visits, one to three days apart, and the patient is on the maximum dose of study drug, he/she must be withdrawn. Patients will receive double-blind study medication for a total of 24 weeks. Table A-19A illustrates the above-described dosing scheme.
Heart rate, BP, serum potassium levels, concomitant medications and adverse events will be assessed at each visit. […] Special studies: collagen markers [aminoterminal propeptide of type III procollagen (PIIINP), 7S domain of type IV collagen (7SIVC), and type I collagen telopeptide (ICTP)], plasma […] (PAI-1), tissue plasminogen activator (t-PA), microalbuminuria, and at selected sites, Ambulatory Blood Pressure Monitoring (ABPM) and arterial compliance will be done at Weeks 0, 14, and 24 or at Final Visit. Quality of Life Questionnaires will be done at visit 2A (beginning of single blind) and Weeks 0, 14, and 24 or at Final Visit. DNA genotyping will be performed at baseline.
In older patients, elevated systolic BP and wide pulse pressure predict cardiovascular risk better than diastolic BP. Reduced vascular compliance and intraglomerular hypertension typically accompany isolated systolic hypertension in older people.
Changes in arterial compliance, measured by pulse-wave velocity, microalbuminuria, and adverse effects (AEs) were assessed at baseline and after 24 weeks of therapy.

[2] = test system: patients with hypertension; test: Dose-ranging study of eplerenone vs placebo and spironolactone in hypertension (Examples A-14, D-1); format: in vivo, human
Experimental: A multicenter, randomized, double-blind, parallel group study was conducted in patients with hypertension. […] The study consisted of a two-week pretreatment period for completion of screening procedures and discontinuation of any current antihypertensive medication(s). The screening period was followed by a four-week single-blind placebo lead-in treatment period. Randomization was followed by an eight-week double-blind active or placebo treatment period. The primary efficacy measure was the change from baseline in cuff diastolic blood pressure measured at trough as compared to placebo. Secondary efficacy measures included changes in cuff assessed trough systolic blood pressure and changes in average 24-hour diastolic and systolic blood pressure assessed by ambulatory blood pressure monitoring. Safety was assessed by conducting routine clinical lab tests, physical exams, ECGs, and monitoring for adverse events. […] The adjusted mean change in blood pressure (mm Hg) from baseline to final visit is described in Table […].

[3] = test system: captopril-treated saline-drinking SHRSP; test: Angiotensin II-induced renal damage in captopril-treated saline-drinking SHRSP, Protocol 2 (Example A-8); format: in vivo, rat (SHRSP/A3N)
Experimental: Animals. Studies were conducted in accordance with institutional guidelines using male SHRSP/A3N (generations F-75 to F-78), n=37, from our local colony. These animals were bred from NIH stock, derived from the SHRSP/A3N substrain described originally by Okamoto and coworkers (Okamoto K et al. Circ. Res. 34 and 35 (suppl I):I-143-I-153.). All animals were housed in a room maintained on a 12:12-h light:dark-cycle and an ambient temperature of 22±1° C. in the Animal Care Facility at New York Medical College. Rats were weaned at 4 weeks of age and allowed free access to Purina Lab Chow 5001 (Ralston Purina, St. Louis, Mo.) and tap water until the initiation of experimental protocols.
SHRSP were placed on Stroke-Prone Rodent Diet (#39-288, Zeigler Bros Inc., Gardners, Pa.) and 1% NaCl drinking solution ad libitum starting at 8.3 weeks of age. […] Animals were handled and weighed daily. Urine samples were collected for the assessment of proteinuria. Systolic blood pressure and heart rate were measured each week. After 2 weeks of treatment, animals were decapitated, trunk blood was collected into chilled EDTA tubes, and the kidneys were removed, blotted dry, and immediately weighed. Coronal sections of kidney were fixed and later processed for light microscopic evaluation.
Assays and Analyses. Systolic blood pressure and heart rate of awake animals were measured by tail-cuff plethysmography using a Natsume KN-210 manometer and tachometer (Peninsula Laboratories Inc., Belmont, Calif.). Rats were warmed at 37° C. for 10 min and allowed to rest quietly in a Lucite chamber before measurement of blood pressure. Measurements of urine volume were made gravimetrically. Urinary protein concentration was determined by the sulfosalicylic acid turbidity method. Plasma aldosterone was measured by radioimmunoassay using ^125I-aldosterone as a tracer (Coat-a Count Aldosterone, Diagnostic Products Co., Los Angeles, Calif.).
Histology. Kidneys were preserved in 10% phosphate-buffered formalin. Coronal sections (2-3 μm) were stained with hematoxylin and eosin and examined by light microscopy in a blinded fashion as previously described (Stier C T et al. J Pharmacol Exp Ther (1992) 260:1410-1415). Glomerular damage was categorized as ischemic or thrombotic. Ischemic lesions were defined as retraction of glomerular capillary tufts with or without appreciable mesangiolysis. Glomerular thrombotic lesions were defined as any one of a combination of the following: segmental to global fibrinoid necrosis, focal thrombosis of glomerular capillaries, swelling and proliferation of intracapillary (endothelial and mesangial) and/or extracapillary cells (crescents), and expansion of reticulated mesangial matrix with or without significant hypercellularity. […] Vascular thrombotic lesions were defined as any one or a combination of the following: mural fibrinoid necrosis, extravasation and fragmentation of red blood cells, and luminal and/or mural thrombosis. Proliferative arteriopathy was characterized by proliferation of markedly swollen myointimal cells with swollen round to ovoid vesicular nuclei surrounded by mucinous extracellular matrix (“onion skinning”) often resulting in nodular thickening. Vascular damage was expressed as the number of arteries and arterioles with lesions per 100 glomeruli. The presence of casts and tubular (ischemic) retraction and simplification was assessed semiquantitatively.
Statistical Analysis. Significant effects with respect to treatment and time were determined by two-way analysis of variance. Data with only one grouping variable were analyzed statistically by Student's unpaired t tests. When more than two groups were compared, one-way analysis of variance was performed followed by the post-hoc Newman-Keul's multiple comparison test. Data were analyzed using version 2.01 of the GraphPad Prism statistical software package (GraphPad Software Inc., San Diego, Calif.). P<0.05 was considered statistically significant.

[4] = after 24 weeks, titration-to-effect
[5] = captopril 50 mg/kg/d, angiotensin II 25 ng/min, eplerenone 100 mg/kg/d, 2 weeks

SMILES: COC(=O)[C@@H]1CC2=CC(=O)CC[C@]2(C)[C@@]23O[C@@H]2C[C@@]2(C)[C@@H](CC[C@@]24CCC(=O)O4)[C@H]13 [Eplerenone, Pregn-4-ene-7,21-dicarboxylic acid, 9,11-epoxy-17-hydroxy-3-oxo-, γ-lactone, methyl ester, (7α, 11α, 17β)-]
- Edema rates (%) ([1]; 24-week study): 3.7%
- peripheral edema frequency ([1]; 24 weeks): 3.7%
- reduction in pulse pressure ([1]; 24 weeks): −15.9 mmHg
- symptoms with significant and clinically meaningful worsening in distress from Baseline (QoL) ([1]; 24 weeks): no worsening in distress
- reduction in SBP ([1]; 24 weeks, EPL 50-200 mg QD, AML 2.5-10 mg QD): −20.5 mmHg
- Pulse Pressure (change) [1, 4]: −15.9 ± 0.96 mmHg
- Systolic BP (change) [1, 4]: −20.5 ± 1.14 mmHg
- safety and tolerability ([1]; in vivo): safe and well tolerated
- Δ microalbuminuria (%) ([1]; only for patients with baseline microalbuminuria (>30 mg/g), 24 weeks): −52.3%
- reduction in UACR ([1]; patients with baseline microalbuminuria (>30 mg/g)): −27.1%
- gynecomastia ([2]; 50-400 mg daily, 8 weeks): no reports of gynecomastia
- safety and tolerability ([2]; 50-400 mg daily, QD or divided doses): safe and well tolerated
- DBP and SBP vs. placebo ([2]; wide range of doses, regardless of assessment method (FIG. D-1, D-2)): significant reductions
- Glomerular damage, Thrombotic [3, 5]: 1.0 ± 0.3 lesions/100 glomeruli
- plasma aldosterone concentration [3, 5]: 231 ± 37 pg/mL
- renal damage ([3]; captopril + angiotensin II 25 ng/min, with eplerenone 100 mg/kg/d or vehicle): 3±1%
